Experimental data: ChEMBL document CHEMBL1150501 (Bioorg Med Chem Lett, 1995)

Target: Glucagon receptor (Rattus norvegicus, UniProt P30082)
Experiment: pA2 value towards glucagon receptor relative to glucagon was calculated

Chain of Glucagon receptor (P30082 whole entry): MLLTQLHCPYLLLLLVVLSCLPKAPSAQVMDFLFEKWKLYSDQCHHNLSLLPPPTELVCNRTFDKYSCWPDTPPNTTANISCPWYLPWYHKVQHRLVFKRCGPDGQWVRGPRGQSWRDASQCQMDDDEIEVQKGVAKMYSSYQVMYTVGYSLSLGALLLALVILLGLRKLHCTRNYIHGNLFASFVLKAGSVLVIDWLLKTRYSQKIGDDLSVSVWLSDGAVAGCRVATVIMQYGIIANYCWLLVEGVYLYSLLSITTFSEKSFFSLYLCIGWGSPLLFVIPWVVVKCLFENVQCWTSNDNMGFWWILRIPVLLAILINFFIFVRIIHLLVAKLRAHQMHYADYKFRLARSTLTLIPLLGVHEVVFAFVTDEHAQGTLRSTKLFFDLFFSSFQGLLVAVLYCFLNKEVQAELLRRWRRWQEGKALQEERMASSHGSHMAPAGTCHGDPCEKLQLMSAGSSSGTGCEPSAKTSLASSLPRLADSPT

- Kb: 6.31 nM
Substance: H-SQGTTSEYSKYLDSRRAQDFVQWLMNT-NH2
